Experimental findings from paper PMC2903464, “NPR-B natriuretic peptide receptors in human corneal epithelium: mRNA, immunohistochemistochemical, protein, and biochemical pharmacology studies” (Molecular Vision, 2010) are described below.

The target in the experiment is T1, NPR-B (Homo sapiens, UniProt P20594).
T1 construct: gene NPR2; endogenous membrane guanylyl cyclase receptor in intact CEPI-17-CL4 cells; NPR-A also expressed; homodimer
T1 sequence (P20594 23-1047): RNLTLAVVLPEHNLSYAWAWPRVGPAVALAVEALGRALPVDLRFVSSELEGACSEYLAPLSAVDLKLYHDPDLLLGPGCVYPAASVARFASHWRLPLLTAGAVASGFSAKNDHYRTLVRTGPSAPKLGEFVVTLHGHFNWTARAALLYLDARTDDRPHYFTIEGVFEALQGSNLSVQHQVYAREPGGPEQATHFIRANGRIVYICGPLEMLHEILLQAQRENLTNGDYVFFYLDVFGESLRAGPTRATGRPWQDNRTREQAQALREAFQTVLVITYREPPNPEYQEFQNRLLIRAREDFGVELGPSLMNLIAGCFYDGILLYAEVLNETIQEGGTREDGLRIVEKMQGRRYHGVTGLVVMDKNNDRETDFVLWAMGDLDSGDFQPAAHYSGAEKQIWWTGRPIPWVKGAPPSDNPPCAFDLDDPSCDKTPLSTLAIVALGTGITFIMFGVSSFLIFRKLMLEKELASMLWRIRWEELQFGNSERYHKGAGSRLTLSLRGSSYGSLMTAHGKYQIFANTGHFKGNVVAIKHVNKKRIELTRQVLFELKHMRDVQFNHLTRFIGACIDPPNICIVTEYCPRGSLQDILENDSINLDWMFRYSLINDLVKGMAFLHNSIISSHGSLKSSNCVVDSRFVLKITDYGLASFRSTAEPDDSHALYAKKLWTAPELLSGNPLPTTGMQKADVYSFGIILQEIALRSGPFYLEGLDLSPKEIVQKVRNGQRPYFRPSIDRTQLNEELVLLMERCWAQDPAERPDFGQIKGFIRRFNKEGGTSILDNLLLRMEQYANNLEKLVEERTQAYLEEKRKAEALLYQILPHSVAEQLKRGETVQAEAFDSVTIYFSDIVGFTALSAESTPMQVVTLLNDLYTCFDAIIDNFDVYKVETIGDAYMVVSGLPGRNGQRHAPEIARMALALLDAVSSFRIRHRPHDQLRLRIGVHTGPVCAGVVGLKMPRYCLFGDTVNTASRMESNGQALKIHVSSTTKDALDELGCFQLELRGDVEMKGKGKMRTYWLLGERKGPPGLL
Put plainly: inhibition of CNP fragment-induced cGMP accumulation in CEPI-17-CL4 cells, enzyme immunoassay. Type of experiment: cell-based. Conditions: 30 nM CNP fragment as agonist, 1 mM IBMX, 23 °C, 20 min pre-incubation; partial inhibition; native cells expressing NPR-A and NPR-B; compound described as NPR-A antagonist.

Usually Ki stands for the equilibrium dissociation constant of an inhibitor or competing ligand from its target.

Take `O=C1Nc2ccccc2C1=O` [isatin]: the Ki worked out at 5.3 ± 1.7 µM.
